Test results: US8481005B2, “Methods to prevent cytotoxicity using N-acetyl-cysteine” (priority 2006, dated 2013)

Key:
[1] = system: NFkB knock down oral keratinocytes; experiment: Cell death in NFkB knock down oral keratinocytes (FS/PI); assay type: cell-based, human; details: overnight
From the text: Next, retrovirally-transduced oral keratinocytes were left untreated or treated with HEMA. […] Numbers in each quadrant represent the percentages of cells in that quadrant.
Similar treatments were next performed as described above except that the morphological assessment of oral keratinocytes before and after HEMA treatment was examined.

PBMCs = PBMCs treated with HEMA or CDDP, FITC-Annexin V and PI; assay type: cell-based; details: about 18 hours, highest concentration of CDDP, HEMA 0.0164M-0.00164M
From the text: The cells were then stained with FITC-Annexin V and PI according to the manufacturer's protocol.

dental pulp cells = experiment: Rat incisor restoration with Herculite XR/ProBOND with or without NAC: pulp cell growth and ALP staining; assay type: in vivo, rats; details: restorative materials about 5 hours
Protocol: In a next experiment, the incisors of nine eight-week-old male rats were prepared with class V preparations near the level of the gingival using a #1 round bur in a high speed dental handpiece.
Again, in this experiment upper and lower incisors were used. Restorative materials were placed on the teeth for about 5 hours. The pulp was extracted and treated with trypsin/EDTA (0.25%) and collagenase (0.02%), washed and resuspended in DMEM containing β-glycerophosphate (10 mM) and ascorbic acid (50 μg/ml) and allowed to grow to confluency. After 14 days of cell growth (media changed every 2-3 days) photographs were taken using an inverted microscope; cells were detached and counted in each experimental group; and wells containing different experimental groups were stained for alkaline phosphatase (ALP).
In vivo studies were performed after tooth restorations to assess the protective effect of NAC on both the viability and function of rat pulp tissue. Eight week old male rats were used for restorations of the incisors. In this study the number of functional cells in cells extracted from the lining of the rat teeth where (A) no restorative materials were administered; (B) restorative materials only were applied; and (C) restorative material in conjunction with NAC were compared. Specifically, nine rats were used and were divided into 3 groups (A, B or C) of 3 rats each. […]

[2] = system: human dental pulp stromal cells; experiment: Extracted human teeth restored with composite resin with or without NAC: pulp cell growth; details: restorations left 5 hours; 14 days of incubation
Protocol: Three freshly extracted human teeth were obtained. Cavity preparations were performed on 2 freshly extracted third molars before restoration. One molar was left untouched and used as control. Specifically, tooth #1 was left untreated; tooth #2 was restored with composite resin alone; and tooth #3 was restored with composite resin after application of NAC. […] Single cell suspensions of control and each restored tooth were then cultured in the presence of β-glycerophosphate (10 mM) and ascorbic acid (50 μg/ml) and microscopic pictures taken after 14 days of incubation for growth.

[3] = system: human dental pulp stromal cells; experiment: Apoptosis in human dental pulp stromal cells, 18 hours; assay type: cell-based; details: HEMA and NAC 20 mM
Protocol: Pulp was then removed, minced and treated with trypsin/EDTA and collagenase to release the dental pulp stromal cells. […] Next the cells were analyzed for apoptosis using FTIC-Annexin V and PI.

[4] = system: dental pulp stromal cells; experiment: Cell death in rat dental pulp stromal cells in vitro; assay type: cell-based, Sprague-Dawley rats; details: 0.0328M and 0.00328M HEMA with NAC 20 mM, about 12-14 hours, versus HEMA alone
From the text: In a first study using dental pulp stromal cells, dental pulp tissue was extracted from the lower central incisors of 8-12 week old male Sprague-Dawley rats. The lower central incisors were carefully extracted without fracture to avoid periodontal tissue influx into the pulp tissue. The periodontal tissue and other soft tissue remnants were removed from the root part of the teeth, and the incisor tip and root parts were then cut to allow the pulp tissue to be washed out. The extracted tissue was then treated with 0.1% collagenase in 0.25% trypsin EDTA at 37° C. for about 15 minutes. The pellet of released cells was then centrifuged at about 2000 rpm for about 4 minutes and resuspended in DMEM supplemented with 10% FBS, 1% sodium pyruvate, 1% non-essential amino acids and 1% antibiotic-antimycotic. The cells were cultured in a 6 well plate and the media was changed every 3 days.

[5] = system: human dental pulp stromal cells; experiment: ALP staining of human dental pulp stromal cells; assay type: cell-based; details: after 7 days of incubation; NAC 20 mM
Protocol: Following the experiment described above in human dental pulp stromal cells, treatments were carried out as described above with the levels of ALP staining representing maturation/differentiation of dental pulp stromal cells. This staining was performed after 7 days of incubation. […] Odontoblasts

[6] = system: osteopontin (OPN) and osteocalcin (OCN); experiment: RT-PCR for osteopontin and osteocalcin in rat dental pulp stromal cells; assay type: cell-based; details: media containing ascorbic acid and β-glycerophosphate
From the text: Rat dental pulp stromal cells were again cultured under 3 different conditions: (1) DMEM alone (undifferentiated); (2) DMEM+β-glycerophosphate+ascorbic acid (differentiated−Dex); and (3) DMEM+β-glycerophosphate+ascorbic acid+dexamethasone (differentiated+Dex). The differentiation of the cells under these different culture conditions was then confirmed by an RT-PCR to assay for genes which are induced during differentiation (osteopontin and osteocalcin). Osteopontin (OPN), is an early osteoblastic marker and osteocalcin (OCN) a late stage marker.
RNA was extracted from the cells and PCR was again performed for OPN and OCN.

IL-2 treated PBMCs = experiment: Tritiated thymidine proliferation of IL-2 treated PBMCs; assay type: cell-based; details: HEMA and NAC, 24 hours with tritiated thymidine
Protocol: Tritiated thymidine was added to the cells and after 24 hours of incubation assessed for proliferation.

gingival cells = experiment: PI/FITC-Annexin V cell survival of rat gingival cells; assay type: cell-based; details: 0.0164M-0.00164M HEMA with NAC 20 mM, about 12-14 hours, versus HEMA alone
Protocol: Rat gingival cells were obtained from 8 week old male rats and cultured in DMEM supplemented with 10% FBS, 1% antibiotic-antimycotic, 1% sodium pyruvate and 1% non-essential amino acids. […] Cell survival was measured by PI/FITC-Annexin V staining as described previously.

[7] = system: dental pulp stromal cells; experiment: Rat tooth bleaching: dental pulp stromal cell growth, count and ALP; assay type: in vivo, rats; details: bleaching agent 5 hours, without or with NAC 20 mM painted 5 minutes; 12-21 days
Protocol: Similar studies were also carried out using dental pulp stromal cells. Rats were divided into three groups: (1) Control (no bleach); (2) Bleach; and (3) Bleach and NAC. In these studies, NAC was initially painted on to the teeth (20 mM concentration) for 5 minutes and then bleaching agent applied for 5 hours, after which the teeth were extracted, and pulp was obtained from each group. Pulp was treated with trypsin/EDTA (0.25%) and collagenase (0.02%) to obtain single cell suspension of the cells, washed and resuspended in DMEM containing β-glycerophosphate (10 mM) and ascorbic acid (50 μg/ml), and allowed to grow to confluency, before either photographs were taken (12-21 days; FIG. 47); cells were counted (21 days; FIG. 48); or ALP staining was performed (21 days; FIG. 49). […] Whitening Strips

Row | SMILES | cell death (FS, PI staining) [1] | cells remained both PI and Annexin V negative (PBMCs) | pulp cell number after restoration (dental pulp cells; 14 days of cell growth) | ALP staining of pulp cells after restoration (dental pulp cells; composite resin with or without NAC) | growth of pulp cells [2] | inhibition of HEMA-mediated cell death [3] | viable cells after HEMA exposure [4] | HEMA-mediated decrease in ALP [5] | differentiation markers OPN and OCN [6] | proliferation (IL-2 treated PBMCs) | viable cells after HEMA exposure (gingival cells) | cytotoxicity and cell death of dental pulp stromal cells [7]
1 | C=C(C)C(=O)OCCO [HEMA, hydroxyethyl methacrylate] | induces significant cell death | less than 50% |  |  |  |  |  |  |  |  |  | 
2 | CC(=O)N[C@@H](CS)C(=O)O [NAC, N-acetyl-cysteine] |  |  | can help to prevent the cell loss | can be ameliorated | growth and expansion of the cells resulted | significant inhibition of HEMA-mediated cell death at all HEMA concentrations | higher number of viable cells | significantly prevented | express higher levels of OPN and OCN | can prevent HEMA-induced loss of proliferation | higher number of viable cells | could be reversed
